Data on ten compounds can be found in article PMC4770307, “New Synthetic Routes to Triazolo-benzodiazepine Analogues: Expanding the Scope of the Bump-and-Hole Approach for Selective Bromo and Extra-Terminal (BET) Bromodomain Inhibition” (Journal of Medicinal Chemistry, 2015).

Test [1] addresses T1, Brd2(1) (Homo sapiens, UniProt P25440).
T1 construct: first bromodomain (e.g., Brd2(1)) versus second bromodomain (e.g., Brd2(2)); His6 (TEV-cleavable) (N); made in house; host or cells: E. coli BL21(DE3); plasmid a gift of the SGC Oxford
In words: Isothermal titration calorimetry (ITC). The test is classed as binding.

Test [2] deals with T2, Brd2(2)L383I (Homo sapiens, UniProt P25440, L383I).
T2 construct: first bromodomain (e.g., Brd2(1)) versus second bromodomain (e.g., Brd2(2)); His6 (TEV-cleavable) (N); made in house; host or cells: E. coli BL21(DE3)
T2 sequence (P25440 344-453 L383I limits assumed): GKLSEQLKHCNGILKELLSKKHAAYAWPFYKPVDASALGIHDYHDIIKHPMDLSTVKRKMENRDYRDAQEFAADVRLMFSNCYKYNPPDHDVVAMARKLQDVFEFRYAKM
In words: Differential scanning fluorimetry (DSF) thermal shift. The test is classed as binding. The note with it: compound 10 μM (LightCycler480) or 30 μM (Mx3005P), read-out: Thermal stabilization (ΔTm). (In DSF a fluorescence change marks the thermal transition of the protein.)

Test [3] has as its target T3, Brd2(2)L383A (Homo sapiens, UniProt P25440, L383A).
T3 construct: first bromodomain (e.g., Brd2(1)) versus second bromodomain (e.g., Brd2(2)); His6 (TEV-cleavable) (N); made in house; host or cells: E. coli BL21(DE3)
In words: Isothermal titration calorimetry (ITC). The test is classed as binding. The note with it: ITC at 25 °C. On the technique in general: In ITC the heat of successive injections is recorded.

Test [4] concerns the target T4, Brd2(2) (Homo sapiens, UniProt P25440).
T4 construct: first bromodomain (e.g., Brd2(1)) versus second bromodomain (e.g., Brd2(2)); His6 (TEV-cleavable) (N); made in house; host or cells: E. coli BL21(DE3); plasmid a gift of the SGC Oxford
In words: Isothermal titration calorimetry (ITC). The class given is binding.

Test [5] addresses T1, Brd2(1). In words: Differential scanning fluorimetry (DSF) thermal shift. The test is classed as binding. The settings on record: compound 10 μM (LightCycler480) or 30 μM (Mx3005P), read-out: Thermal stabilization (ΔTm).
Test [6] concerns the target T4, Brd2(2). Described as above. The settings on record: compound 10 μM (LightCycler480) or 30 μM (Mx3005P), read-out: Thermal stabilization (ΔTm). The test is classed as binding.
The target of test [7] is T5, Brd2(1)L110A (Homo sapiens, UniProt P25440, L110A).
T5 construct: first bromodomain (e.g., Brd2(1)) versus second bromodomain (e.g., Brd2(2)); His6 (TEV-cleavable) (N); made in house; host or cells: E. coli BL21(DE3)
T5 sequence (P25440 74-180 L110A limits assumed): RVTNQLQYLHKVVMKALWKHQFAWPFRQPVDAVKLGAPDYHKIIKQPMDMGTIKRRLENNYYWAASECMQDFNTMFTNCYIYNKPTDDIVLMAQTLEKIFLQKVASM
Put plainly: Isothermal titration calorimetry (ITC). The test is classed as binding. The settings on record: ITC at 25 °C.

Test [8] deals with T3, Brd2(2)L383A. Put plainly: Differential scanning fluorimetry (DSF) thermal shift. The class given is binding. The note with it: compound 10 μM (LightCycler480) or 30 μM (Mx3005P), read-out: Thermal stabilization (ΔTm).
For test [9], the target named is T5, Brd2(1)L110A. Described as above. The note with it: compound 10 μM (LightCycler480) or 30 μM (Mx3005P), read-out: Thermal stabilization (ΔTm). The class given is binding.
The target in test [10] is T6, Brd2(1)L110I (Homo sapiens, UniProt P25440, L110I).
T6 construct: first bromodomain (e.g., Brd2(1)) versus second bromodomain (e.g., Brd2(2)); His6 (TEV-cleavable) (N); made in house; host or cells: E. coli BL21(DE3)
T6 sequence (P25440 74-180 L110I limits assumed): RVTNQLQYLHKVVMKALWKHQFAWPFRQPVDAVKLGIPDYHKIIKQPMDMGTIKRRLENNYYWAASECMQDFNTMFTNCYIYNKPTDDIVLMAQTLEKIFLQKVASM
In words: Isothermal titration calorimetry (ITC). The test is classed as binding. The note with it: ITC at 25 °C.

Test [11] deals with T6, Brd2(1)L110I. Put plainly: Differential scanning fluorimetry (DSF) thermal shift. The class given is binding. The note with it: compound 10 μM (LightCycler480) or 30 μM (Mx3005P), read-out: Thermal stabilization (ΔTm).
The target of test [12] is T2, Brd2(2)L383I. Put plainly: Isothermal titration calorimetry (ITC). The class given is binding. The note with it: ITC at 25 °C.
The target in test [13] is T7, Brd2(2)W370H (Homo sapiens, UniProt P25440, W370H).
T7 construct: first bromodomain (e.g., Brd2(1)) versus second bromodomain (e.g., Brd2(2)); His6 (TEV-cleavable) (N); made in house; host or cells: E. coli BL21(DE3)
T7 sequence (P25440 344-453 W370H limits assumed): as the sequence (P25440 344-453 L383I limits assumed) above, with W27H, I40L counted along it
Put plainly: Differential scanning fluorimetry (DSF) thermal shift. The class given is binding. The settings on record: compound 10 μM (LightCycler480) or 30 μM (Mx3005P), read-out: Thermal stabilization (ΔTm).

Test [14] addresses T8, Brd2(1)W097F (Homo sapiens, UniProt P25440, W97F).
T8 construct: first bromodomain (e.g., Brd2(1)) versus second bromodomain (e.g., Brd2(2)); His6 (TEV-cleavable) (N); made in house; host or cells: E. coli BL21(DE3)
The test is described as above. The test is classed as binding. The settings on record: compound 10 μM (LightCycler480) or 30 μM (Mx3005P), read-out: Thermal stabilization (ΔTm).

The target of test [15] is T9, Brd2(2)W370F (Homo sapiens, UniProt P25440, W370F).
T9 construct: first bromodomain (e.g., Brd2(1)) versus second bromodomain (e.g., Brd2(2)); His6 (TEV-cleavable) (N); made in house; host or cells: E. coli BL21(DE3)
T9 sequence (P25440 344-453 W370F limits assumed): as the sequence (P25440 344-453 L383I limits assumed) above, with W27F, I40L counted along it
The description is as above. The test is classed as binding. The note with it: compound 10 μM (LightCycler480) or 30 μM (Mx3005P), read-out: Thermal stabilization (ΔTm).

Test [16] deals with T10, Brd2(1)W097H (Homo sapiens, UniProt P25440, W97H).
T10 construct: first bromodomain (e.g., Brd2(1)) versus second bromodomain (e.g., Brd2(2)); His6 (TEV-cleavable) (N); made in house; host or cells: E. coli BL21(DE3)
T10 sequence (P25440 74-180 W97H limits assumed): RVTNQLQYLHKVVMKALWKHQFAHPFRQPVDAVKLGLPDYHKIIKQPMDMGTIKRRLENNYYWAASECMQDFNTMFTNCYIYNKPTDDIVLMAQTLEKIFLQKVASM
Described as above. The class given is binding. The note with it: compound 10 μM (LightCycler480) or 30 μM (Mx3005P), read-out: Thermal stabilization (ΔTm).

Test [17] has as its target Brd2(2). The note with it: reported Kd; cited from earlier work.
The subject of test [18] is Brd2(2). Put plainly: Isothermal titration calorimetry (ITC). The test is classed as binding. The note with it: Brd2(2) over Brd2(1), from ITC Kd's.
The target in test [19] is Brd4(1) (Homo sapiens, UniProt O60885). In words: Isothermal titration calorimetry (ITC). The test is classed as binding. The settings on record: ITC at 30 °C, […] DMSO.
The target in test [20] is Brd4(2) (Homo sapiens, UniProt O60885). Put plainly: Isothermal titration calorimetry (ITC). The test is classed as binding. The settings on record: ITC at 30 °C, […] DMSO.
Test [21] concerns leucine/alanine mutant BET bromodomains. On the set-up: method as in PMID 25323695. The settings on record: cited from earlier work.
In test [22] the target is T11, Brd2(2)V376A (Homo sapiens, UniProt P25440, V376A).
T11 construct: first bromodomain (e.g., Brd2(1)) versus second bromodomain (e.g., Brd2(2)); His6 (TEV-cleavable) (N); made in house; host or cells: E. coli BL21(DE3)
T11 sequence (P25440 344-453 V376A limits assumed): as the sequence (P25440 344-453 L383I limits assumed) above, with V33A, I40L counted along it
In words: Differential scanning fluorimetry (DSF) thermal shift. The class given is binding. The settings on record: compound 10 μM (LightCycler480) or 30 μM (Mx3005P), read-out: Thermal stabilization (ΔTm).

Test [23] has as its target T12, Brd2(1)V103A (Homo sapiens, UniProt P25440, V103A).
T12 construct: first bromodomain (e.g., Brd2(1)) versus second bromodomain (e.g., Brd2(2)); His6 (TEV-cleavable) (N); made in house; host or cells: E. coli BL21(DE3)
The test is described as above. The class given is binding. The note with it: compound 10 μM (LightCycler480) or 30 μM (Mx3005P), read-out: Thermal stabilization (ΔTm).

Test [24] has as its system WT and mutant Brd2(1) and Brd2(2) proteins. Put plainly: DSF, WT and mutant proteins (statements in words). The class given is binding. The note with it: mutant compared with WT Brd2 proteins.

T8 sequence (P25440 74-180 W97F limits assumed): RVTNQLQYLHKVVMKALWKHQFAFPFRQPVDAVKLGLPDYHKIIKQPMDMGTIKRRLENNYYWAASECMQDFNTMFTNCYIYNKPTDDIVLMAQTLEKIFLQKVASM
T1 sequence (P25440 74-180 limits assumed): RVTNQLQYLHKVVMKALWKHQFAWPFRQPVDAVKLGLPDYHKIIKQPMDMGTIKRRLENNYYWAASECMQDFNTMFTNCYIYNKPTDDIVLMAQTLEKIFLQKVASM
T4 sequence (P25440 344-453 limits assumed): as the sequence (P25440 344-453 L383I limits assumed) above, with I40L counted along it
T3 sequence (P25440 344-453 L383A limits assumed): as the sequence (P25440 344-453 L383I limits assumed) above, with I40A counted along it
T12 sequence (P25440 74-180 V103A limits assumed): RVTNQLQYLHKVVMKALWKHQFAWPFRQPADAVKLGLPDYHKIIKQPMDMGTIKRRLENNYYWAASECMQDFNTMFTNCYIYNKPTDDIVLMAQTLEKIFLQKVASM

`COC(=O)[C@H](C)[C@@H]1N=C(c2ccc(Cl)cc2)c2cc(OC)ccc2-n2c(C)nnc21` [ME]: the Kd – broadly, the constant that tells how readily two partners part at equilibrium – in test [1] (ITC at 25 °C) turned out to be 1.47 ± 0.18 µM; in test [3], 0.022 ± 0.004 µM; in [4] (ITC at 25 °C) it was 0.3 ± 0.08 µM; in test [7], 0.017 ± 0.004 µM; in [10], 0.26 ± 0.04 µM; in test [12] it was 0.027 ± 0.012 µM. The “ΔH (binding enthalpy)” value in test [1] (ITC at 25 °C) was “–8.6 ± 0.2 kcal/mol”; in test [3], “–12.6 ± 0.1 kcal/mol”; in [4] (ITC at 25 °C), “–5.4 ± 0.1 kcal/mol”; in test [7], “–16.8 ± 0.2 kcal/mol”; in [10] it was “–8.5 ± 0.1 kcal/mol”; in [12], “–9.8 ± 0.1 kcal/mol”. For the same compound, the ΔTm (in general, the shift of the melting midpoint relative to a reference) at 10 µM in [2] stood at 9.6 ± 0.1 °C; in test [5], 3.2 ± 0.2 °C; in test [6] it was 5.6 ± 0.1 °C; in test [8], 9.3 ± 0.2 °C; in test [9], 7.9 ± 0.2 °C; in test [11], 5.7 ± 0.7 °C.

As for `COC(=O)CC1N=C(c2ccc(Cl)cc2C)c2cc(OC)ccc2-n2c(C)nnc21` (stereo not drawn) [compound 24], the ΔTm at 10 µM is 1.1 ± 0.2 °C in [13]; 1.4 ± 0.2 °C in [14]; 2.8 ± 0.1 °C in test [15]; 6.3 ± 0.1 °C in test [5]; 6.6 ± 0.2 °C in [6]; 0.9 ± 0.3 °C in test [16].

On to `CC(=O)NCCCCn1c2c(c3ccccc31)C(=O)NCC2` [olinone], for which the Kd in [17] is greater than 300 µM.

On to `COC(=O)CC1N=C(c2cc(C)ccc2C)c2cc(OC)ccc2-n2c(C)nnc21` (stereo not drawn) [compound 26], for which the ΔTm at 10 µM in [13] was -0.1 °C; in [14] it was 0.1 ± 0.2 °C; in test [15], 0.6 ± 0.1 °C; in [5] it was 1.8 ± 0.2 °C; in test [6] it was 3.5 ± 0.1 °C; in test [16], -0.4 °C.

For the compound `COC(=O)CC1N=C(c2cccc3[nH]ccc23)c2cc(OC)ccc2-n2c(C)nnc21` (stereo not drawn) [compound 28], the Kd in test [1] (ITC at 30 °C, […] DMSO) is 0.78 µM; in [4] (ITC at 30 °C, […] DMSO) it was 0.045 µM; in test [19] it was 0.52 µM; in [20] it was 0.05 µM. The ΔTm at 10 µM in [13] was 2.7 ± 0.4 °C; in test [14] it was 1.9 ± 0.5 °C; in test [15], 5.2 ± 0.1 °C; in test [5], 6.8 ± 0.6 °C; in test [6] it was 7.7 ± 0.2 °C; in test [16], 0.6 ± 0.3 °C. The “selectivity for the second over the first bromodomain” value in [18] is on record as “ca. 20 fold”.

With `CC[C@@H](C(=O)OC)[C@@H]1N=C(c2ccc(Cl)cc2)c2cc(OC)ccc2-n2c(C)nnc21` [ET (6)], in [21] (average across the entire subfamily), the “selectivity for L/A mutants relative to WT BET bromodomains, average” value was 160 fold. In addition, the “affinity for leucine/alanine mutant BET bromodomains” value in [21] (in words) is listed as “low nanomolar affinity”.

As for `COC(=O)CC1N=C(c2ccc(Cl)cc2)c2cc(OC)cc(C)c2-n2c(C)nnc21` (stereo not drawn) [compound 15], the ΔTm at 10 µM in test [5] is 0.7 ± 0.2 °C; in [6], 4 ± 0.1 °C; in [22] it was 1.2 ± 0.1 °C; in test [23], 0.5 ± 0.3 °C.

Regarding `COC(=O)[C@@H](C)[C@@H]1N=C(c2ccc(Cl)cc2)c2cc(OC)ccc2-n2c(C)nnc21` [compound 16], the ΔTm at 10 µM is 0.3 ± 0.2 °C in [2]; -0.3 °C in [5]; 0.2 ± 0.2 °C in test [6]; 0.8 ± 0.6 °C in test [8]; 1.6 ± 0.2 °C in test [9]. Also, the “thermal stabilization, in words” value in test [24] is “did not induce a significant stabilization”.

For `COC(=O)CC1N=C(c2ccc(Cl)c(C)c2)c2cc(OC)ccc2-n2c(C)nnc21` (stereo not drawn) [compound 25], the ΔTm at 10 µM is 1 ± 0.3 °C in [13]; -0.1 °C in test [14]; 1.5 °C in test [15]; 1.5 ± 0.2 °C in test [5]; 3.2 ± 0.1 °C in [6]; 0.2 ± 0.2 °C in test [16].

Consider `COC(=O)CC1N=C(c2cc(Cl)ccc2Cl)c2cc(OC)ccc2-n2c(C)nnc21` (stereo not drawn) [compound 27], for which the ΔTm at 10 µM in [13] is -0.4 °C; in test [14], 0 °C; in test [15], 0.3 °C; in test [5] it was 1.2 ± 0.2 °C; in [6], 2.5 ± 0.2 °C; in test [16] it was -0.4 °C.
